Reference: PubChem BioAssay (NCI)
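1) Cells in 96-well plates. 2) Compound, 48 h, 5 concentrations. 3) Linear interpolation between surrounding doses. 4) Unreached endpoint = highest concentration. TGI: concentration producing complete growth inhibition.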

Legend:
Test in all cases: inhibition of tumour cell growth, NCI panel, 48 h
RPMI-8226 leukemia = test system: RPMI-8226 leukemia
KM12 colon = test system: KM12 colon
MOLT-4 leukemia = test system: MOLT-4 leukemia
HOP-92 NSCLC = test system: HOP-92 NSCLC
SF-268 CNS = test system: SF-268 CNS
CCRF-CEM leukemia = test system: CCRF-CEM leukemia
NCI-H460 lung = test system: NCI-H460 lung
XF 498 CNS = test system: XF 498 CNS
786-0 renal = test system: 786-0 renal
NCI-H23 lung = test system: NCI-H23 lung
OVCAR-8 ovarian = test system: OVCAR-8 ovarian
EKVX NSCLC = test system: EKVX NSCLC
TK-10 renal = test system: TK-10 renal
SN12C renal = test system: SN12C renal
OVCAR-4 ovarian = test system: OVCAR-4 ovarian
SNB-75 CNS = test system: SNB-75 CNS
LXFL 529 NSCLC = test system: LXFL 529 NSCLC
OVCAR-5 ovarian = test system: OVCAR-5 ovarian
HL-60(TB) leukemia = test system: HL-60(TB) leukemia
K-562 leukemia = test system: K-562 leukemia
HOP-18 NSCLC = test system: HOP-18 NSCLC
HT29 colon = test system: HT29 colon
HCT-15 colon = test system: HCT-15 colon
RXF 393 renal = test system: RXF 393 renal
A498 renal = test system: A498 renal
M19-MEL melanoma = test system: M19-MEL melanoma
SK-MEL-2 melanoma = test system: SK-MEL-2 melanoma
DMS 273 small cell lung = test system: DMS 273 small cell lung
MALME-3M melanoma = test system: MALME-3M melanoma
HCT-116 colon = test system: HCT-116 colon
RXF-631 renal = test system: RXF-631 renal
SF-539 CNS = test system: SF-539 CNS
UACC-62 melanoma = test system: UACC-62 melanoma
HCC-2998 colon = test system: HCC-2998 colon
A549 NSCLC = test system: A549 NSCLC
SW-620 colon = test system: SW-620 colon
U251 CNS = test system: U251 CNS
SR leukemia = test system: SR leukemia
COLO 205 colon = test system: COLO 205 colon
HOP-62 NSCLC = test system: HOP-62 NSCLC
IGROV1 ovarian = test system: IGROV1 ovarian
LOX IMVI melanoma = test system: LOX IMVI melanoma
SK-OV-3 ovarian = test system: SK-OV-3 ovarian
M14 melanoma = test system: M14 melanoma
UO-31 renal = test system: UO-31 renal
SNB-19 CNS = test system: SNB-19 CNS
SK-MEL-5 melanoma = test system: SK-MEL-5 melanoma
UACC-257 melanoma = test system: UACC-257 melanoma
ACHN renal = test system: ACHN renal
DLD-1 colon = test system: DLD-1 colon
SNB-78 CNS = test system: SNB-78 CNS
KM20L2 colon = test system: KM20L2 colon
SK-MEL-28 melanoma = test system: SK-MEL-28 melanoma
SF-295 CNS = test system: SF-295 CNS
OVCAR-3 ovarian = test system: OVCAR-3 ovarian
DMS 114 small cell lung = test system: DMS 114 small cell lung
CAKI-1 renal = test system: CAKI-1 renal
NCI-H226 lung = test system: NCI-H226 lung
NCI-H522 lung = test system: NCI-H522 lung

Measured: TGI

CCOC(=O)C=C1CCN(C(=O)c2ccccc2)CC1
0.284 µM: SK-MEL-2 melanoma
not listed: DMS 114 small cell lung | CAKI-1 renal | NCI-H226 lung | NCI-H522 lung
> 100 µM: all other assays above

CCCC(O)[C@@H](O)c1ccc2c(c1O)C(=O)c1c(OC)cccc1C2=O (stereo not given in full)
75.4 µM: RXF-631 renal
91.2 µM: UO-31 renal
61.5 µM: M19-MEL melanoma
42.1 µM: NCI-H522 lung
91.1 µM: SNB-78 CNS
61.9 µM: DMS 114 small cell lung
85.7 µM: CCRF-CEM leukemia
69.1 µM: M14 melanoma
68.1 µM: HCC-2998 colon
82.5 µM: HCT-15 colon
44.8 µM: COLO 205 colon
61.8 µM: UACC-62 melanoma
42.9 µM: HL-60(TB) leukemia
36.3 µM: XF 498 CNS
69.2 µM: MOLT-4 leukemia
38.2 µM: RPMI-8226 leukemia
58.8 µM: SF-539 CNS
68.8 µM: UACC-257 melanoma
66.6 µM: SR leukemia
90.3 µM: MALME-3M melanoma
80.4 µM: LOX IMVI melanoma
31.2 µM: SK-MEL-5 melanoma
not listed: LXFL 529 NSCLC | RXF 393 renal
> 100 µM: all other assays above

COC(=O)c1[nH]c(=S)[nH]c(=O)c1-c1ccc(Cl)cc1
not listed: HOP-18 NSCLC
> 50 µM: all other assays above
